According to US9918931B2, “Method for providing a customized skin care product to a customer” (L'OREAL, priority 2016, dated 2018):

Test: Solubility of active ingredients in base oil composition
Format: physicochemical
Conditions: active ingredient in base oil composition; loading without asterisk

- Loading (wt %), soluble (not marked *): 3%
SMILES: O=C(O)c1ccccc1O [Salicylic Acid, reference compound]
